# In US20160137630A1, “INDUCTION OF GATA2 BY HDAC1 AND HDAC2 INHIBITORS” (ACETYLON PHARMACEUTICALS, INC., priority 2014, published 2016):
# Like-named read-outs stand apart in the source and are kept apart here.
# What was measured:
# [1] = test system: Human CD34+ bone marrow cells; experiment: erythroid maturation in CS1 by CD71/GlyA flow cytometry; type: cell-based; details: 1 μM
# Description: To investigate the effects of HDAC inhibition on later stages of erythroid maturation, differentiation in CS1 was followed by flow cytometry using fluorescent antibodies against the transferrin receptor (CD71) and glycophorin A (GlyA). […] The majority of vehicle control cells continued to differentiate, becoming CD71^posGlyA^pos by day 8. […] CD71^posGlyA^mid cells are equivalent to proerythroblasts (ProE), while CD71^posGlyA^pos cells include the more differentiated basophilic and polychromatic erythroblasts.
# Gata2 regulatory regions = experiment: ChIP-QPCR of histone acetylation at Gata2 regulatory regions; type: cell-based
# Description: In chromatin state maps these histone modifications, especially H3K9ac and H3K27ac, have been associated with active regulatory regions, such as enhancers and promoters of actively transcribed genes. The differentiation profile was unaffected by compound treatment and similar to that of cells used in experiments above (FIG. 23B).
# [2] = dosing schedule study in rats; type: in vivo, rat; details: 30 mg/kg
# Description: IV. Rats were dosed with 30 mg/kg once daily by oral gavage according to the above schedule. […] Group 1=daily dosing, Group 2=5 on 2 off, Group 3=3 on 4 off, Group 4=every other day, Group 5=control. N=4 animals per group (FIG. 28A).
# Data points are the average of N=4 animals. HbE2 mRNA level was determined by quantitative real time PCR and expressed relative to HbB mRNA control. Data for each animal was then normalized to the expression level prior to the onset of dosing (average of day −3 and day 0 values).
# Data points are the average of N=4 animals.
# HbG mRNA [3] = experiment: % HbG mRNA induction in 2-phase culture systems CS1 and CS2; type: cell-based, human
# Description: Then, the cells were differentiated by exposure to either vehicle (control) or Compound 001. RNA samples of HbG were taken at days 0, 3, 5, and 8. […] Staining cells with a FITC-conjugated anti-HbF antibody and flow cytometry was used to measure induction of fetal hemoglobin.
# [4] = blood cell counts in monkeys; type: in vivo, cynomolgus monkey; details: monkey
# Description: (§1) B. Cynomolgus monkey were dosed once daily by oral gavage for 5 consecutive days at 0 mg/kg, 25 mg/kg, or 75 mg/kg per dose (FIG. 25B). Sampling as described in ‘A’.
# For each individual monkey, white blood cell counts were expressed relative to their predose level (time=day 0). Points are the average of n=3 animals with error bars showing the standard deviation.
# HDAC3 = HDAC3 (Homo sapiens, UniProt O15379); experiment: in vitro biochemical HDAC inhibition assay
# [5] = test system: CD34+ bone marrow cells undergoing erythroid differentiation; experiment: Affymetrix GeneChip mRNA expression profiling; type: cell-based, human
# Description: The knockdown results were derived from an independent analysis of publically available raw data (Bradner et al., “Chemical genetic strategy identifies histone deacetylase 1 (HDAC1) and HDAC2 as therapeutic targets in sickle cell disease”, PNAS, vol. 107(28), pp. 12617-22 (2010)) and detection of mRNA by Affymetrix GeneChip.
# Among the genes differentially regulated by both pharmacological inhibition and genetic ablation of HDAC1/2 were Bcl11a and Sox6, known HbG repressors, and Gata2, a potential HbG activator.
# Then, the cells were differentiated by exposure to either vehicle (control) or Compound 001. FACS was performed at day 5. […] GlyA.
# The mechanism through which HDAC1/2 inhibition induces HbG by performing gene expression profiling was interrogated. Because HDAC inhibition prevented cells from fully upregulating GlyA (FIG. 19E), RNA was isolated at day 5 of differentiation, a time point prior to the observed differentiation block.
# Next, using the GeneChip data, a candidate gene approach was taken to determine which HbG modulators were changing as a result of both chemical and genetic HDAC1/2 inhibition (FIG. 1A). […] In contrast, other HbG repressors, such as Myb and Klf1 were unaffected. Expression changes were not observed for other genes involved in HbG regulation, including KDM1A (LSD1), NR2C1 (TR2) and NR2C2 (TR4), NR2F2 (COUP-TFII) and nuclear factor Y subunits, and proteins known to associate with Bcl11a12 (data not shown).
# Gata2 = Gata2 shRNA knockdown with Compound 001 treatment; type: cell-based, human
# Description: In FIG. 13A-D, expanded hematopoietic progenitors were infected with lentivirus carrying short hairpin RNAs (shRNA) directed against the Gata2 gene (shG2-1, shG2-2) or a non-targeting control shRNA (shCtrl). Transduced cells were selected by puromycin treatment. […] RNA was isolated at the indicated time points and the level of Gata2 mRNA was determined by quantitative real time PCR (QRT-PCR). In FIG. 7A, K562 cells were infected with lentivirus as described above. […] RNA was isolated at indicated time point and the level of Gata2 mRNA was determined by quantitative real time PCR (QRT-PCR). In FIG. 7B, protein levels at Day 3 were determined by Western blot using antibodies against Gata2 and beta-actin as a loading control. […] Data was first normalized to beta-actin control and then expressed relative to vehicle treated cells.
# Since Gata2 levels decline during erythroid differentiation (FIGS. 1B and 1C), knockdown experiments were performed entirely in CS1 expansion media, which supports hematopoietic progenitors, and maintained Gata2 mRNA at a constant level in shCtrl cells following infection (FIG. 13B). Gata2 mRNA was reduced by 85% or 50% in shG2-1 or shG2-2 cells, respectively, while Gata2 protein was reduced by 50% by each hairpin, relative to shCtrl cells (FIG. 13B and FIG. 13D).
# HbG mRNA [6] = experiment: HbG mRNA levels in peripheral blood of monkeys; type: in vivo, cynomolgus monkey; details: monkey, 25 and 75 mg/kg; FIG. 27C-D
# Description: as §1
# For each individual monkey, HbG mRNA was expressed relative to HbB mRNA and then normalized to their predose level (time=day 0). Points are the median of n=3 animals with error bars showing the range.
# [7] = every other day dosing schedule
# [8] = Compound 001 1 μM vs vehicle, day 5
# HDAC3, sequence (O15379 whole entry): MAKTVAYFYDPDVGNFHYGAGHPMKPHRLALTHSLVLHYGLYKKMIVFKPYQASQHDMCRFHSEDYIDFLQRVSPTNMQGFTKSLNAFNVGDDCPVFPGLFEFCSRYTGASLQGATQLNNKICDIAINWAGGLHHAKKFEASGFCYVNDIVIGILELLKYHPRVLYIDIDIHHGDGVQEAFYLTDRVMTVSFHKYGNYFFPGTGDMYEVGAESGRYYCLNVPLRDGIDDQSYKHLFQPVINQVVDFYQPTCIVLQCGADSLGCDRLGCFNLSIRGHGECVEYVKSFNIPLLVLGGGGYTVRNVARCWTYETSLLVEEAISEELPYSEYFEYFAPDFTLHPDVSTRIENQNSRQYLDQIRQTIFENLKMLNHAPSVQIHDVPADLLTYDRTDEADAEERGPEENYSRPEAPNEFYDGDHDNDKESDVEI
# HDAC3, sequence (Q9Y618 395-489 partner limits assumed): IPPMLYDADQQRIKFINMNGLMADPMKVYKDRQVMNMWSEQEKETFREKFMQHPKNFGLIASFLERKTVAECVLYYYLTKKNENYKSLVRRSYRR
structure (smiles),measurement,setting,value
"Nc1ccc(-c2cccs2)cc1NC(=O)c1ccc2nc(N3CCNCC3)ccc2c1 [Compound 001, N-(2-amino-5-(thiophen-2-yl)phenyl)-2-(piperazin-1-yl)quinoline-6-carboxamide]",erythroid differentiation (CD71/GlyA),[1]; by day 8,block differentiation of proerythroblasts to basophilic erythroblasts
same,erythroid differentiation (CD71/GlyA),[1]; first 5 days,differentiated normally
same,"increase in histone H3K9, H2BK5, and H3K27 acetylation",Gata2 regulatory regions; +9.5 kb and −3.9 kb regions,3 fold
same,"increase in histone H3K9, H2BK5, and H3K27 acetylation",Gata2 regulatory regions; −1.8 kb and −2.8 kb regulatory regions,6 fold
same,mode of HbF expression (HbE2 mRNA pattern),[2]; 3 on 4 off dosing schedule,heterocellular mode of HbF expression
same,myelosuppression (white blood cell counts),[2]; 3 on 4 off dosing schedule,greater myelo suppression
same,mode of HbF expression (HbE2 mRNA pattern),[2]; [7],pancellular mode of HbF expression
same,myelosuppression (white blood cell counts),[2]; [7],less myelosuppression
same,% HbG,"HbG mRNA [3]; 1 μM, increased from 10%",46%
same,induction in % HbG,"HbG mRNA [3]; differentiation phase, both culture systems, FIG. 10B, 21A-C",dose- and time-dependent induction
same,RBC or platelets,[4],no detected affect
same,time of peak white blood cell suppression after the last dose,[4],1 days
same,time to recovery of white blood cell counts to baseline after the last dose,[4],5 days
same,white blood cells,[4]; 25 or 75 mg/kg for 5 days,reversible suppression
same,selectivity over HDAC3,HDAC3,approximately 100 fold
same,IC50,"HDAC3; Table 2, read-out: IC50 HDAC3",114 nM
same,IC50,"HDAC3; pre-incubation time of 24 hours, FIG. 9A, 17B, read-out: IC50 against HDAC3",1300 nM
same,candidate gene expression ratio Bcl11a,[5]; [8],0.8
same,candidate gene expression ratio Gata1,[5]; [8],1.0
same,candidate gene expression ratio Gata2,[5]; [8],2.8
same,candidate gene expression ratio KLF1,[5]; [8],0.9
same,candidate gene expression ratio Myb,[5]; [8],1.1
same,candidate gene expression ratio Sox6,[5]; [8],0.4
same,Bcl11a down-regulation,"[5]; GeneChip, FIG. 1A",1.3 fold
same,Gata2 up-regulation,"[5]; GeneChip, FIG. 1A",2.8 fold
same,Klf1 expression change,"[5]; GeneChip, FIG. 1A",unaffected
same,Myb expression change,"[5]; GeneChip, FIG. 1A",unaffected
same,Sox6 down-regulation,"[5]; GeneChip, FIG. 1A",2.5 fold
same,Gata2 mRNA induction,"Gata2; 1 uM, cells expressing shCtrl",1.4 fold
same,Gata2 protein induction,"Gata2; 1 uM, cells expressing shCtrl",5 fold
same,reduction of magnitude of HbG mRNA induction relative to shCtrl cells,Gata2; shG2-1 and shG2-2 cells,25%
same,"HbG mRNA relative to HbB mRNA, normalized to predose",HbG mRNA [6],dose-dependent increase
